Measured values reported in patent publication US7078382B1, “Modulation of eNOS activity and therapeutic uses thereof” (Genentech, Inc., priority 1999, dated 2006).
Entries after “also recorded” stand apart in the source; their conditions may differ.

Assays:
[1] = test system: eNOS expression; assay: eNOS expression by Western blot in ACE cells; assay type: cell-based, bovine; settings: for eNOS expression, time course: 0-5 days, VEGF alone or co-incubated with L-NAME (2 mM) or SNAP; for effect of signalling inhibitors on VEGF-induced eNOS expression: with 500 pM rhVEGF; for effect on VEGF-induced eNOS expression, KDR tyrosine kinase inhibitor: co-incubated with 500 pM rhVEGF; for eNOS expression with angiogenic factors / eNOS expression with KDR-specific VEGF variants: 500 pM; for eNOS expression with VEGF forms and receptor-selective variants: equal concentrations, two days
Procedure: At the end of incubation, total cell lysates were prepared, and eNOS protein levels were determined by Western blot analysis.
Bovine adrenal cortex capillary endothelial cells (ACE) were prepared and maintained as previously described (Ferrara et.al., 1989 Biochem. Biophys. Res. Commun. 161:851–858). Briefly, cells were plated onto 6-well tissue culture plates (Costar) and grown in low glucose Dulbecco's modified Eagle's medium, supplemented with 2 mM […] (Life Technologies), 10% bovine calf serum (HyClone Lab., Inc.) and 100 μg/ml Penicillin/Streptomycin (Life Technologies). ACE cells were used between passages 4 and 8.
Medium was changed every 24 hours.
The methods for cell lysis and Western blot (WB) have been described in Shen et al., 1998 J. Biol. Chem. 273:29979–29985. A monoclonal anti-eNOS antibody was used at 1:2500 to probe eNOS protein. A secondary antibody conjugated with horseradish peroxidase (1:2500) (Zymed) and an enhanced chemiluminescent kit (Amershal Pharmacia Biotech) were used to visualize the eNOS immunoreactive bands. Multiple exposures of films were obtained to determine the optical exposure time. The protein bands were scanned by a densitometer and the relative intensities were quantified using IMAGEQUANT® software (Molecular Dynamics).
(§1) Confluent ACE cells were incubated with 500 pM rhVEGF. Total cell lysates were prepared as described above. Equal amounts of protein were denatured under reducing conditions and separated in a 10% Novex mini gel and transferred to PVDF membrane. eNOS protein signals were visualized by ECL and quantified using densitometry.

[2] = biological target: Flt-1 receptor; assay: Flt-1 receptor binding ELISA (inhibition of biotinylated native VEGF binding to Flt-IgG); settings: first figure of the cell, read-out: Binding to FLT-1 Receptor, concentration at midpoint absorbance
Procedure: Receptor binding assays were performed in 96-well immunoplates (Maxisorp, Nunc-Immunoplate, Nalge Nunc International, Rochester, N.Y.). Each well was coated with 100 μl of a solution containing 2 μg/ml of rabbit F(ab′)2 to human IgG Fc (Jackson ImmunoResearch, West Grove, Pa.) in 50 mM carbonate buffer at pH 9.6 and incubated at 4° C. overnight. The supernatant was then discarded, the wells were washed three times in washing buffer (0.05% Tween 20 in PBS), and the plate was blocked (150 μl per well) with block buffer (0.5% BSA, 0.01% thimerosal in PBS) at room temperature for one hour. The supernatant was discarded, and the wells were washed.
The wells were filled with 100 μl of a solution containing Flt-IgG (a chimeric Flt-human Fc molecule) at 50 ng/ml in assay buffer (0.5% BSA, 0.05% Tween 20 in PBS). The wells were incubated at room temperature for 1 hour and then washed three times in wash buffer (0.05% Tween 20 in PBS).
Aliquots of the mixture (100 μl) were added to the precoated microtiter wells and the plate was incubated for 2 hours at room temperature. […] Absorbance was read at 450 nm on a Vmax plate reader (Molecular Devices, Menlo Park, Calif.).
Titration curves were fit with a four-parameter nonlinear regression curve-fitting program (KaleidaGraph, Synergy Software, Reading, Pa.).

[3] = test system: eNOS; assay: Association of proteins with eNOS (immunoprecipitation, Western blot) in endothelial cells; settings: VEGF 1-60 minutes
[4] = test system: PAE/FLT-1 cells; settings: 500 pM rhVEGF, 2 days
Procedure: Porcine aorta endothelial (PAE) cells, and receptor transfected PAE cells (PAE/KDR and PAE/FLT-1) were provided by Napoleone Ferrara (Genentech, Inc.) and cultured in Ham's F-12 medium containing 10% FBS (for PAE), or plus 250 μg/ml G480 (for PAE/KDR and PAE/FLT-1).
PAE, PAE/KDR and PAE/Flt-1 cells were incubated with or without 500 pM rhVEGF for 2 days. eNOS was detected as described above for Example 1. Other materials and methods used in this study were as described above for Example 1.

[5] = biological target: Flt-1 receptor (Homo sapiens, UniProt P17948); assay: RIA binding assay, FLT-1 receptor
From the text: The results are shown below in Table 6.

[6] = coronary artery disease patients, intracoronary or intravenous infusion at 0.05 microgram/Kg body weight/minute
From the text: In one aspect, the invention provides methods for treating a NO associated disorder or condition such as hypertension, diabetes, thrombosis, angina, heart failure or atherosclerosis.

[7] = test system: PKC; settings: ACE cells, rhVEGF 500 pM, 10 minutes
Procedure: Cytosolic and membrane fractions were prepared to investigate the re-distribution or PKC isoforms. […] (See FIG. 5A).

[8] = test system: eNOS activity; settings: ACE cells
Procedure: as §1

[9] = biological target: T1, KDR receptor (Homo sapiens, UniProt P35968); assay: RIA binding assay, KDR receptor
T1 construct: host or cells: CHO cells

[10] = angina patients, prolonged time point, early results
From the text: Luscher TF (1992) Br. J. Clin. Pharmacol. 34 Suppl. 1:29S–35S.

Chain of Flt-1 receptor (Homo sapiens, UniProt P17948) (P17948 27-1338): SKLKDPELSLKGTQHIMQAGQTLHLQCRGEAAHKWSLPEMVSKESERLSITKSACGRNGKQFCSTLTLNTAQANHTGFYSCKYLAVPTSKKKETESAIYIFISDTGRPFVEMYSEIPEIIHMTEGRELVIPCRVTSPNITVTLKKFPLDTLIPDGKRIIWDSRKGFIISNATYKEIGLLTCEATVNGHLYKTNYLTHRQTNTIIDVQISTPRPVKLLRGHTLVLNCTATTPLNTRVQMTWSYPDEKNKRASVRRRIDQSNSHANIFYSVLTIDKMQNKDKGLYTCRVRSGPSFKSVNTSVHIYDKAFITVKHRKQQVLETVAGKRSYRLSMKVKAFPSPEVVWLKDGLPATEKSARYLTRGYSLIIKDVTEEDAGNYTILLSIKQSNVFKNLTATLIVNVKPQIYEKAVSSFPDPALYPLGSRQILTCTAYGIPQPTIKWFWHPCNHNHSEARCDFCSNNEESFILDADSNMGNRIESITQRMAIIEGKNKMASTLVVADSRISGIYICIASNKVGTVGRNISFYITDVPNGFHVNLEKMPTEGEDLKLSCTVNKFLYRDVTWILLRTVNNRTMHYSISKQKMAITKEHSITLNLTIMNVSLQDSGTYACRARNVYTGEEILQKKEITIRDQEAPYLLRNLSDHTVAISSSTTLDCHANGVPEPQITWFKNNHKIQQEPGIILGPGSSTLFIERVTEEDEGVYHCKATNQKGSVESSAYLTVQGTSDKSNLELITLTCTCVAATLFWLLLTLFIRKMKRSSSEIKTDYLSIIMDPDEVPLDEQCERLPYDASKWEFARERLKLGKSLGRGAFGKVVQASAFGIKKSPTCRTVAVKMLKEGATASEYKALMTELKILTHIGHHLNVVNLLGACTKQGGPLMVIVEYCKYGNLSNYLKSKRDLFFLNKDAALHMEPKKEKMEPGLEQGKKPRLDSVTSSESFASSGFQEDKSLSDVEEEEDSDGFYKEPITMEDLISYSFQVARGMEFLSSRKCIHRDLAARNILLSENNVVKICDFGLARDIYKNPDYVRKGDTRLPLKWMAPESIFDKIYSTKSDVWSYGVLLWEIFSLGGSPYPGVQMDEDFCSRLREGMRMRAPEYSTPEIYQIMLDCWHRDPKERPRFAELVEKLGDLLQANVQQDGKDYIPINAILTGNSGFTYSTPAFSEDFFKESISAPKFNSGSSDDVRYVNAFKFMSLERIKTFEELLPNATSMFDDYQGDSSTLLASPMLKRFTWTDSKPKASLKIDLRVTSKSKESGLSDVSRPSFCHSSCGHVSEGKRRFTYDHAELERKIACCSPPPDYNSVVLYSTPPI
T1 sequence (P35968 20-1356): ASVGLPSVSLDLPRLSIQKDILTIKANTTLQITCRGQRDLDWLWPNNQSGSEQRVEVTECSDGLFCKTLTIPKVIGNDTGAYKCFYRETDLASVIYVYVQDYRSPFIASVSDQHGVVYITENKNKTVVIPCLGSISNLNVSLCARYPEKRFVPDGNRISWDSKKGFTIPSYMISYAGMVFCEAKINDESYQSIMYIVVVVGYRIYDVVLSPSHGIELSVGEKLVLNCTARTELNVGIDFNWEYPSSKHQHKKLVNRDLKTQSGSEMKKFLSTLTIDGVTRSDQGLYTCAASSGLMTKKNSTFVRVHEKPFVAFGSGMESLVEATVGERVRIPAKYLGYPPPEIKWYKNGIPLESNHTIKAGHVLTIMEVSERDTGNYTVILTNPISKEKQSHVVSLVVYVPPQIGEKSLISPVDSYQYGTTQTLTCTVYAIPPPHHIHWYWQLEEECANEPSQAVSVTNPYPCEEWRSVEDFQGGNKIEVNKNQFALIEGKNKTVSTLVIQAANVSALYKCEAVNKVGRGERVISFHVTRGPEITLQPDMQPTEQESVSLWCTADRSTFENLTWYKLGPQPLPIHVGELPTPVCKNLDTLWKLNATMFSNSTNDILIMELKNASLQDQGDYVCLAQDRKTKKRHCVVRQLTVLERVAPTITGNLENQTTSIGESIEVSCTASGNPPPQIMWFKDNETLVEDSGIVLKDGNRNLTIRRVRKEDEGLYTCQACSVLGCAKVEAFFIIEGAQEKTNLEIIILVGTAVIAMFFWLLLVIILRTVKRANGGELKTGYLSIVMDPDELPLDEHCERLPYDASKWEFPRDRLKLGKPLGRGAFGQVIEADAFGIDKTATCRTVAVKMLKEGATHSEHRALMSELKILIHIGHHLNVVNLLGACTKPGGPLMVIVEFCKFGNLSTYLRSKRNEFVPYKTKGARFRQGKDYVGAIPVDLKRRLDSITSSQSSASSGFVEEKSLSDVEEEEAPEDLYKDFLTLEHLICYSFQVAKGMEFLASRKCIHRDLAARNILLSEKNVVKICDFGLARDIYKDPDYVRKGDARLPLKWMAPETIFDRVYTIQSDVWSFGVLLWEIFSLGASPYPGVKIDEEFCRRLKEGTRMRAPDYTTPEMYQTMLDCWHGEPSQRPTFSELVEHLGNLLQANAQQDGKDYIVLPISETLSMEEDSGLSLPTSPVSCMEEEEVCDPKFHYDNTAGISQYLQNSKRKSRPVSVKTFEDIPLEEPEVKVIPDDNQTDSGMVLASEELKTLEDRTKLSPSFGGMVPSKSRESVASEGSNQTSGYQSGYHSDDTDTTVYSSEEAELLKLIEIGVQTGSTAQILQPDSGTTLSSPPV
Chain of Flt-1 receptor (P17948 27-327 limits assumed): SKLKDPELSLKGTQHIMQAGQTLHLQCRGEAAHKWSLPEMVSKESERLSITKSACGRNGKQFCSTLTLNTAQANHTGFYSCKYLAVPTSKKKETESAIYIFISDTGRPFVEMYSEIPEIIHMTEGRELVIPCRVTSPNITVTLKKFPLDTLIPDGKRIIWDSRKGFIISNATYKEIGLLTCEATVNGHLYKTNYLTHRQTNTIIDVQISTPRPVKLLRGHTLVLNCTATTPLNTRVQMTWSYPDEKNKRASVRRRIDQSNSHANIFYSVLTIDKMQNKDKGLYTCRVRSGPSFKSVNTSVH

**Q.** Which “eNOS expression, time course” value [1] does the source give for `COC(=O)[C@@H](N)CCCNC(=N)N[N+](=O)[O-]` [L-NAME, L-N^G-Nitroarginine methyl ester, reference compound] here?
**A.** sustained increase

**Q.** For `CCCCCCCCCCCCCC(=O)O[C@@H]1[C@@H](C)[C@@]2(O)[C@@H](C=C(CO)C[C@]3(O)C(=O)C(C)=C[C@@H]23)[C@@H]2C(C)(C)[C@]12OC(C)=O` [PMA, phorbol 12-myristate 13-acetate, reference compound], which “eNOS levels after PKC activation” value [1] is on record?
**A.** time-dependent (FIG. 5C) and dose-dependent (data not shown) increase in eNOS levels; also recorded: increased eNOS levels

**Q.** For `Cc1ccc(-c2nn(C(C)(C)C)c3ncnc(N)c23)cc1` [PP1, reference compound], which “effect of signalling inhibitors on VEGF-induced eNOS expression” value (“effect of signalling inhibitors” below) ([1]; 2 days) is on record?
**A.** also blocked eNOS expression

**Q.** Which results are given for `CC(C)c1cc(/C=C(\C#N)C(=O)NCCCc2ccccc2)cc(C(C)C)c1O` [SU1498, reference compound]?
**A.** effect on VEGF-induced eNOS up-regulation at high concentration ([1]; 100 μM, 500 pM rhVEGF, 2 days): completely blocked; effect on VEGF-induced eNOS expression, KDR tyrosine kinase inhibitor ([1]; 2 days): dose-dependent prevention; effect on VEGF-induced eNOS expression, KDR tyrosine kinase inhibitor ([1]; 2 days, listed as SU-149 g): dose dependent inhibition

**Q.** For `COC[C@H]1OC(=O)c2coc3c2[C@@]1(C)C1=C(C3=O)[C@@H]2CCC(=O)[C@@]2(C)C[C@H]1OC(C)=O` [Wortmannin, wortmannin, reference compound], which “effect of signalling inhibitors” value ([1]; 2 days) is on record?
**A.** no significant effect

**Q.** For `O=c1c(-c2ccc(O)cc2)coc2cc(O)cc(O)c12` [genistein, reference compound], which “effect of signalling inhibitors” value ([1]; 2 days) is on record?
**A.** blocked VEGF-induced eNOS expression

**Q.** Which “effect of signalling inhibitors” value ([1]; 2 days) does the source give for `CO[C@H]1[C@@H](OC)C[C@H](C)[C@@H](OC)C2=CC(=O)C=C(NC(=O)/C(C)=C/C=C\[C@H](OC)[C@@H](OC(N)=O)/C(C)=C/[C@@H]1C)C2=O` [herbimycin A, reference compound] here?
**A.** blocked VEGF-induced eNOS expression

**Q.** With “EGF: recombinant human epidermal growth factor (NSDSECPLSHDGYCLHDGVCMYIEALDKYACNCVVGYIGERCQYRDLKWWELR; Epidermal growth factor; UniProt P01133 971-1023, looked up)” as the compound, how does the “eNOS expression with angiogenic factors” value ([1]; 2 days) read?
**A.** no significant effect

**Q.** Which “eNOS expression with angiogenic factors” value ([1]; 2 days) does the source give for “FGF: Recombinant human fibroblast growth factor (FGF) basic” here?
**A.** no significant effect

**Q.** With “HGF: heterodimeric form of recombinant human hepatocyte growth factor” as the compound, how does the “eNOS expression with angiogenic factors” value ([1]; 2 days) read?
**A.** capable of increasing eNOS expression

**Q.** For “LK-VRB-2f: full length 1-165 VEGF variant, D63S/G65M/L66R”, which “eNOS expression with KDR-specific VEGF variants” value ([1]; 2 days) is on record?
**A.** markedly up-regulated eNOS expression

**Q.** For “LK-VRB-2s*: VEGF (1-109) variant, D63S/G65M/L66R”, which IC50 [2] is on record?
**A.** > 400 nM

**Q.** What about the “eNOS expression with KDR-specific VEGF variants” value ([1]; 2 days) of the same compound?
**A.** markedly up-regulated eNOS expression

**Q.** For “TGF-beta1: recombinant human transforming growth factor”, which “eNOS expression with angiogenic factors” value ([1]; 2 days) is on record?
**A.** reduced endogenous eNOS expression

**Q.** With VEGF as the compound, how does the “eNOS association levels of caveolin and PLC-γ” value [3] read?
**A.** significantly reduces; also recorded: induces dissociation

**Q.** And the “levels of Hsp90 and Hsp70 associated with eNOS” value [3]?
**A.** increase the levels of Hsp90 and Hsp70 associated with eNOS; also recorded: increase association

**Q.** And the “eNOS up-regulation in PAE/FLT-1 cells” value [4]?
**A.** not in FLT-1 transfected PAE (PAE/FLT) cells; also recorded: not in FLT-1 containing PAE cells

**Q.** And the “Relative Binding Affinity FLT-1 Receptor” value ([5]; relative to Native VEGF 165)?
**A.** 1

**Q.** What about the IC50 ([5]; value in brackets, read-out: Binding affinity FLT-1 Receptor) of the same compound?
**A.** 0.037 nM

**Q.** And the mean arterial pressure [6]?
**A.** dose-rate dependent reduction in mean arterial pressure

**Q.** And the “re-distribution of PKC isoforms from cytosolic to membrane fractions” value [7]?
**A.** rapid re-distribution

**Q.** What about the “eNOS expression, time course” value [1] of the same compound?
**A.** time-dependent but transient increase; also recorded: time-dependent increase in eNOS expression

**Q.** And the “eNOS expression with KDR-specific VEGF variants” value ([1]; 2 days)?
**A.** induced a similar degree of eNOS expression

**Q.** What about the “peak eNOS expression” value ([1]; 2 days (48 hours) post exposure to 500 pM VEGF) of the same compound?
**A.** 5.5 fold

**Q.** And the “concentration giving maximal increase of eNOS” value ([1]; dose-dependent up-regulation)?
**A.** 500 pM

**Q.** And the “eNOS expression with VEGF forms and receptor-selective variants” value ([1]; listed as VEGF165)?
**A.** induced a similar degree of eNOS expression; also recorded: induce eNOS up-regulation

**Q.** What about the “eNOS activity, acute treatment” value ([8]; 0-60 min) of the same compound?
**A.** time-dependent increase

**Q.** And the “eNOS activity in treated cells versus untreated control cells” value ([8]; 2 days VEGF)?
**A.** about 5 fold

**Q.** What about the “Relative Binding Affinity KDR Receptor” value [9] of the same compound?
**A.** 1 (97 pM)

**Q.** What about the “angina class, angina frequency, treadmill times versus placebo” value [10] of the same compound?
**A.** trends of improvement

**Q.** For “VEGF110: heparin binding domain-deficient variant made from VEGF165 by limited proteolytic digestion with plasmin”, which “eNOS expression with KDR-specific VEGF variants” value ([1]; 2 days) is on record?
**A.** induced a similar degree of eNOS expression

**Q.** What about the “eNOS expression with VEGF forms and receptor-selective variants” value [1] of the same compound?
**A.** induced a similar degree of eNOS expression; also recorded: induce eNOS up-regulation
